Results reported in publication PMC8924211 (Nature Communications, 2022).
Positions count from the first letter of the chain named.

Legend:
Assay in all cases: Calcium assay, HEK293/Gα16 cells, GAL2R mutants
Type in all cases: cell-based
GAL2R mutants [1] = target: T1, GAL2R mutants (Homo sapiens, UniProt O43603, H102A); conditions: GAL2R H1023.29A
T1 construct: expressed in transfected cells; host or cells: HEK293
T1 sequence (O43603 1-387 H102A): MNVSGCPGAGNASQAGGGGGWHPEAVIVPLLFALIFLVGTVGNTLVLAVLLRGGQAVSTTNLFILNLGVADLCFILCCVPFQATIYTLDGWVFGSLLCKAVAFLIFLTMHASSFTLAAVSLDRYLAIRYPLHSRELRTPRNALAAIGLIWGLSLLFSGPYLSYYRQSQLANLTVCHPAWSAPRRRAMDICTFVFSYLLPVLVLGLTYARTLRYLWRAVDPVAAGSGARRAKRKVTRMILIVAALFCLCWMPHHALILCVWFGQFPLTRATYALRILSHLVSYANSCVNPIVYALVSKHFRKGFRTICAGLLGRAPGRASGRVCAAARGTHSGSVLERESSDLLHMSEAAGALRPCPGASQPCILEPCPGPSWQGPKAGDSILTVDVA

GAL2R mutants [2] = target: T2, GAL2R mutants (Homo sapiens, UniProt O43603, I85A); conditions: GAL2R I852.64A
T2 construct: expressed in transfected cells; host or cells: HEK293
T2 sequence (O43603 1-387 I85A): T1 sequence (O43603 1-387 H102A) with I85A, A102H

GAL2R mutants [3] = target: T3, GAL2R mutants (Homo sapiens, UniProt O43603, T267A); conditions: GAL2R T2677.28A
T3 construct: expressed in transfected cells; host or cells: HEK293
T3 sequence (O43603 1-387 T267A): T1 sequence (O43603 1-387 H102A) with A102H, T267A

GAL2R mutants [4] = target: T4, GAL2R mutants (Homo sapiens, UniProt O43603, V259A); conditions: GAL2R V2596.58A
T4 construct: expressed in transfected cells; host or cells: HEK293
T4 sequence (O43603 1-387 V259A): T1 sequence (O43603 1-387 H102A) with A102H, V259A

GAL2R mutants [5] = target: T5, GAL2R mutants (Homo sapiens, UniProt O43603, Y86A); conditions: GAL2R Y862.65A
T5 construct: expressed in transfected cells; host or cells: HEK293
T5 sequence (O43603 1-387 Y86A): T1 sequence (O43603 1-387 H102A) with Y86A, A102H

[6] = response of 100 μM spexin compared to WT
[7] = response of 100 μM spexin compared to WT, mean ± S.E.M.

- Emax (GAL2R mutants [1]; spexin, replicate 1): no response
- Emax (GAL2R mutants [1]; spexin, replicate 2): no response
- Emax (GAL2R mutants [1]; spexin, replicate 3): no response
- Emax (GAL2R mutants [2]; spexin, replicate 1): no response
- Emax (GAL2R mutants [2]; spexin, replicate 2): no response
- Emax (GAL2R mutants [2]; spexin, replicate 3): no response
- Emax (GAL2R mutants [3]; [7]): 19.9±3.4%
- EC50 (GAL2R mutants [3]; spexin, replicate 1): 0.0008339 µM
- Emax (GAL2R mutants [3]; spexin, replicate 1): 26.5588%
- EC50 (GAL2R mutants [3]; spexin, replicate 2): 10.49 µM
- Emax (GAL2R mutants [3]; spexin, replicate 2): 17.6424%
- EC50 (GAL2R mutants [3]; spexin, replicate 3): 1.506 µM
- Emax (GAL2R mutants [3]; spexin, replicate 3): 15.5083%
- Emax (GAL2R mutants [4]; [7]): 68.4±5.7%
- EC50 (GAL2R mutants [4]; spexin, replicate 1): 1.328 µM
- Emax (GAL2R mutants [4]; spexin, replicate 1): 60.401%
- EC50 (GAL2R mutants [4]; spexin, replicate 2): 6.622 µM
- Emax (GAL2R mutants [4]; spexin, replicate 2): 65.4165%
- EC50 (GAL2R mutants [4]; spexin, replicate 3): 6.153 µM
- Emax (GAL2R mutants [4]; spexin, replicate 3): 79.3756%
- Emax (GAL2R mutants [5]; spexin, replicate 1): no response
- Emax (GAL2R mutants [5]; spexin, replicate 2): no response
- Emax (GAL2R mutants [5]; spexin, replicate 3): no response
Substance: spexin
- Emax (GAL2R mutants [1]; [6]): NR (NR, no response, refers to response < 10% compared to WT receptor (spexin at 100 μM))
- Emax (GAL2R mutants [2]; [6]): NR (NR, no response, refers to response < 10% compared to WT receptor (spexin at 100 μM))
- Emax (GAL2R mutants [5]; [6]): NR (NR, no response, refers to response < 10% compared to WT receptor (spexin at 100 μM))
